{"source": "patent US20120291148A1", "about": "“TRANSGENIC PLANTS WITH ENHANCED CHARACTERISTICS” (Miami University, priority 2007, published 2012)", "molecules": {"B1": {"name": "AtETHE1: Arabidopsis thaliana ETHE1 polypeptide, recombinant, purified from E. coli; mononuclear Fe(II) β-lactamase fold protein (protein)", "chain": "MKLLFRQLFENESSTFTYLLADVSHPDKPALLIDPVDKTVDRDLKLIDELGLKLIYAMNTHVHADHVTGTGLLKTKLPGVKSVISKASGSKADLFLEPGDKVSIGDIYLEVRATPGHTAGCVTYVTGEGADQPQPRMAFTGDAVLIRGCGRTDFQEGSSDQLYESVHSQIFTLPKDTLIYPAHDYKGFEVSTVGEEMQHNPRLTKDKETFKTIMSNLNLSYPKMIDVAVPANMVCGLQDVPSQAN"}, "B2": {"name": "rat carbonic anhydrase III: recombinant rat carbonic anhydrase III, literature comparator for esterase activity (protein, UniProt P14141 2-260, looked up)", "Carbonic anhydrase 3": "AKEWGYASHNGPEHWHELYPIAKGDNQSPIELHTKDIRHDPSLQPWSVSYDPGSAKTILNNGKTCRVVFDDTFDRSMLRGGPLSGPYRLRQFHLHWGSSDDHGSEHTVDGVKYAAELHLVHWNPKYNTFGEALKQPDGIAVVGIFLKIGREKGEFQILLDALDKIKTKGKEAPFNHFDPSCLFPACRDYWTYHGSFTTPPCEECIVWLLLKEPMTVSSDQMAKLRSLFASAENEPPVPLVGNWRPPQPIKGRVVRASFK"}}, "key": {"AtETHE1 [1]": {"target": "T1, AtETHE1 (Arabidopsis thaliana, UniProt Q9C8L4, S50M)", "T1 construct": "made in house", "assay": "Steady-state kinetic test of candidate substrates with AtETHE1", "type": "biochemical", "conditions": "steady-state kinetic studies after screening hit", "method": "(§1) Enzymatic assays were conducted at 25° C. in 10 mM MOPS, pH 7.2, on a Cary IE UV-Vis spectrophotometer. A series of thioesters of glutathione were synthesized as previously described (L. Uotila, Meth. Enzymol. 77 (1981) 424-430), and all other substrates were purchased commercially. The hydrolysis of S-D-lactoylglutathione (Sigma), S-D-acetylglutathione, S-D-acetoacetylglutathione, S-D-formylglutathione, S-D-glyocosylgutathione or S-D-pyruvylglutathione was monitored at 240 nm. S-D-mandeloylglutathione hydrolysis was monitored at 263 nm (L. Uotila, Meth. Enzymol. 77 (1981) 424-430). Hydrolysis of p-nitrophenyl phosphate (Sigma), p-nitrophenyl sulfate (Sigma), and p-nitrophenyl acetate (Sigma) was monitored at 400 nm (see R. A. Anderson, et al., Proc. Natl. Acad. Sci. 72 (1975) 2989-2993; J. J. Brandt, et al., Anal. Biochem. 272 (1999) 94-99; J. M. Armstrong, et al., J. Biol. Chem. 241 (1966) 5137-5149). The hydrolysis of L-alanine-p-nitroanilide (Sigma) was measured at 404 nm (J. J. Brandt, et al., Anal. Biochem. 272 (1999) 94-99). Ala-ala-ala-p-nitroanilide (Sigma) and y-L-Glu-p-nitroanalide (Sigma) hydrolysis was monitored at 410 nm. Hydrolysis of benzoylglycyl-L-phenylalanine was monitored at 254 nm (J. F. Sabastian, et al., Can. J. Biochem. 56 (1978) 329-333). […]"}, "AtETHE1 [2]": {"target": "T1, AtETHE1", "assay": "Inhibition of AtETHE1 p-nitrophenyl acetate hydrolysis by metal chelator", "type": "biochemical", "conditions": "presence of metal chelator", "method": "as §1"}, "AtETHE1 expression": {"system": "AtETHE1 expression", "assay": "RT-PCR of AtETHE1 mRNA in hydroponic plants under abiotic stress (Example 4)", "type": "in vivo, Arabidopsis Columbia", "conditions": "10 uM ABA 3 hours; 150 mM NaCl 12 hours (roots); 300 mM Mannitol 24 hours", "method": "Stress studies were performed on Wild-type Arabidopsis Columbia grown hydroponically. Seeds were germinated on Rockwool (GrodanHP, Agro Dynamics Inc., East Brunswick, N.J., USA) suspended above Hoagland's solution and grown in a growth chamber maintained at 23° C. and 16 hour light, 8 hour dark cycles. For the plants stressed with abscisic acid (ABA), seedlings were grown hydroponically for 7 days and then stressed for 3 hours with 10 uM ABA. Plants were grown hydroponically for 18 days for stresses with NaCl and Mannitol. Plants were either stressed with 150 mM NaCl for 12 hours or stressed for 24 hours with 300 mM Mannitol. Plant material, roots only for NaCl stress, was immediately ground in liquid N2 and stored in the −80° C. until needed for RNA isolation.\nAtETHE1 RNA levels were determined using RT-PCR on total RNA isolated from either whole plants (ABA, Mannitol treated) or from the roots (NaCl treated). […] ACT8 was used as a control."}, "[3]": {"system": "AtETHE1 transcript levels", "assay": "RT-PCR of AtETHE1 transcript levels under abiotic stress (Example 5)", "type": "in vivo, Arabidopsis Columbia", "conditions": "10 μM ABA 3 hours; 150 mM NaCl or 300 mM Mannitol 24 hours", "method": "Stress studies were performed on wild-type Arabidopsis Columbia plants grown hydroponically. Seeds were germinated on Rockwool (GrodanHP, Agro Dynamics Inc., East Brunswick, N.J., USA) suspended above Hoagland's solution (Cowgilland & Milazzo, (1989) The Culturing and Testing of Two Species of Duckweed. In W J Adams, G A Chapman, eds, Aquatic Toxicology and Hazard Assessment Vol 12. American Society for Testing and Materials, Philadelphia, Pa., pp 379-391) and grown in a growth chamber maintained at 23° C. with 16 hour light, 8 hour dark cycles. Plants stressed with abscisic acid (ABA), were grown hydroponically for 7 days and then stressed for 3 hours with 10 μM ABA. Plants were grown hydroponically for 18 days prior to treatment with either 150 mM NaCl or 300 mM Mannitol for 24 hours.\nAtETHE1 RNA levels were determined by RT-PCR on total RNA (1 μg) isolated from cotyledon, root, stem, leaf, silique, and bud, and seedlings subjected to abiotic stresses. AtETHE1 cDNA was synthesized using a Thermoscript RT-PCR kit, followed by 25 cycles of PCR using the primer pair 2-3-5′ and 2-3-2. ACT8 was used as a control (An, et al., (1996) Plant J 10: 107-121)."}, "[4]": {"system": "Arabidopsis seedlings (root growth)", "assay": "Seedling growth on MS plates with exogenous metabolites", "type": "in vivo, Arabidopsis thaliana", "conditions": "for inhibition at 1500 µM: Arabidopsis thaliana, 168 h, 1.5 mM valine, 7 days of growth; for sensitivity of AtETHE256-OE plants compared with wild-type plants: 0 mM to 2 mM metabolite on MS plates", "method": "Studies in Arabidopsis thaliana Heyhn were performed on the Wassilewskija (WS) ecotype. Seeds were vernalized at 4° C. for 48 hours prior to being placed in a growth chamber. For measurement of toxicity and germination rates, seeds were surfaced sterilized with 70% ethanol for 30 seconds followed by 10% bleach for 30 minutes, rinsed three times with sterile deionized water and plated on half strength Murashige and Skoog (MS) plates solidified with 0.6% Gelrite and supplemented with 1.5% sucrose, pH 6.0. Plates were vernalized for four days at 4° C. and then placed in a controlled growth chamber at 23° C. on a 16:8 light/dark cycle.\nWild-type Arabidopsis (Ws), AtETHE1256-OE, and AtETHE1294-OE seeds were sown onto half-strength MS plates with 0 mM to 2 mM valine, propionate, ethylmalonic acid, butyric acid, or crotonic acid (all purchased from Sigma). Neutralized, filter-sterilized metabolites were added after the medium was autoclaved. Once toxicity levels for wild-type seeds were obtained, wild-type, AtETHE1256-OE, and AtETHE1294-OE seeds were plated together on the same plates. Root lengths and cotyledon growth from 100 plants per stress were measured and compared after 7 days of growth."}, "plants": {"system": "plants", "assay": "Preliminary studies of methylmalonate toxicity in plants", "type": "in vivo"}, "[5]": {"assay": "Steady-state hydrolysis of p-nitrophenyl acetate by purified AtETHE1", "type": "biochemical, Arabidopsis thaliana", "conditions": "substrate p-nitrophenyl acetate; 25° C., 10 mM MOPS pH 7.2", "method": "as §1"}, "[6]": {"assay": "Thioesterase activity of AtETHE1 with SLG and other glutathione thioesters", "type": "biochemical, Arabidopsis thaliana", "method": "as §1"}, "[7]": {"conditions": "recombinant rat carbonic anhydrase III, G. Kim et al. 2000; cited from earlier work"}}, "note": "Where two headings read alike, the source gives them in different places."}
{"molecule": "N[C@@H](CCC(=O)Nc1ccc([N+](=O)[O-])cc1)C(=O)O", "note": "[Glu-pNA, y-L-Glu-p-nitroanalide]", "values": [{"measurement": "substrate for AtETHE1", "setting": "AtETHE1 [1]", "result": "not to be substrates"}]}
{"molecule": "c1cnc2c(c1)ccc1cccnc12", "note": "[1,10-o-phenanthroline]", "values": [{"measurement": "effect on AtETHE1 activity towards p-nitrophenyl acetate", "setting": "AtETHE1 [2]", "result": "inhibited"}]}
{"molecule": "OC[C@@H](O)[C@@H](O)[C@H](O)[C@H](O)CO", "note": "[mannitol]", "values": [{"measurement": "fold increase of AtETHE1 expression versus control", "setting": "AtETHE1 expression", "result": 2.6, "unit": "fold"}, {"measurement": "increase in AtETHE1 transcript levels", "setting": "[3]", "result": "approximately 2.5 fold"}]}
{"molecule": "CC1=CC(=O)CC(C)(C)[C@@]1(O)/C=C/C(C)=C\\C(=O)O", "note": "[ABA, abscisic acid]", "values": [{"measurement": "fold increase of AtETHE1 expression versus control", "setting": "AtETHE1 expression", "result": 1.8, "unit": "fold"}, {"measurement": "increase in AtETHE1 transcript levels", "setting": "[3]", "result": "approximately two fold increases"}]}
{"molecule": "Ala-ala-ala-p-nitroanilide [Ala-Ala-Ala-pNA]", "values": [{"measurement": "substrate for AtETHE1", "setting": "AtETHE1 [1]", "result": "not to be substrates"}]}
{"molecule": "CC(C)[C@H](N)C(=O)O", "note": "[valine]", "values": [{"measurement": "inhibition at 1500 µM", "setting": "[4]; AtETHE1256-OE plants, read-out: inhibition of growth", "result": "~40", "unit": "%"}, {"measurement": "inhibition at 1500 µM", "setting": "[4]; wild-type plants, read-out: inhibition of root growth", "result": "~80", "unit": "%"}]}
{"molecule": "C/C=C/C(=O)O", "note": "[crotonic acid]", "values": [{"measurement": "sensitivity of AtETHE256-OE plants compared with wild-type plants", "setting": "[4]", "result": "same sensitivity"}]}
{"molecule": "CC(C(=O)O)C(=O)O", "note": "[methylmalonate]", "values": [{"measurement": "toxicity in plants", "setting": "plants", "result": "toxic in plants"}]}
{"molecule": "CCC(=O)O", "note": "[propionate]", "values": [{"measurement": "sensitivity of AtETHE256-OE plants compared with wild-type plants", "setting": "[4]", "result": "same sensitivity"}]}
{"molecule": "[Cl-].[Na+]", "note": "[NaCl]", "values": [{"measurement": "fold increase of AtETHE1 expression versus control", "setting": "AtETHE1 expression", "result": 2.1, "unit": "fold"}, {"measurement": "increase in AtETHE1 transcript levels", "setting": "[3]", "result": "approximately two fold increases"}]}
{"molecule": "CCC(C(=O)O)C(=O)O", "note": "[ethylmalonic acid]", "values": [{"measurement": "sensitivity of AtETHE256-OE plants compared with wild-type plants", "setting": "[4]", "result": "same sensitivity"}]}
{"molecule": "CCCC(=O)O", "note": "[butyric acid]", "values": [{"measurement": "sensitivity of AtETHE256-OE plants compared with wild-type plants", "setting": "[4]", "result": "same sensitivity"}]}
{"molecule": "B1", "values": [{"measurement": "activity against p-NPA", "setting": "[5]", "result": "2.02±0.46 nmols/min/mg of enzyme"}, {"measurement": "enzymatic activity towards SLG", "setting": "[6]; Example 5, over-expressed purified AtETHE1", "result": "no enzymatic activity"}, {"measurement": "hydrolysis of glutathione thioesters", "setting": "[6]; as-isolated and after incubation with excess iron, SLG and other thioester derivatives", "result": "did not hydrolyze any of the glutathione thioesters"}]}
{"molecule": "B2", "values": [{"measurement": "esterase activity with p-nitrophenyl acetate", "setting": "[7]", "result": 25.8, "unit": "nmols/min/mg"}]}
